Data on one molecule can be found in patent US8911769B2, “Orally disintegrating pharmaceutical composition comprising diclofenac” (Novartis AG, priority 2004, dated 2014).

Data set [1] is described as follows: Non-aggregation of diclofenac free acid in dispersion (Malvern laser particle size analyzer). The data set is classed as physicochemical. On the procedure:
For example, the edible film of Example 2 completely disintegrates within 15 seconds. • (b) Plasma levels of diclofenac: The plasma levels of diclofenac are measured in vivo, e.g. in pigs, at different time intervals after oral administration of the edible films. Edible films according to the invention may produce similar plasma levels of diclofenac as a commercially available tablet comprising 12.5 mg diclofenac potassium (Voltaren® Dolo) [AUC (=Area Under the Curve) is essentially the same]. Tmax may be even shorter in edible films than in Voltaren® Dolo—what is desirable in many cases. • (c) Consumer testing of the organoleptic properties of the edible films: The perception of the edible films immediately after administration is tested. An immediate softening and pleasant feeling in the mouth are realized. • (d) Taste evaluation of the edible films: The taste of the edible films is evaluated in vitro with the aid of an “electronic tongue” equipment and also in consumer tests. […] For example, the particle size of—non-micronized or micronized—diclofenac free acid is measured with the aid of a Malvern (UK) laser particle size analyzer equipment before and after processing, under different conditions of manufacture, to an edible film.

For data set [2] the following is noted: in water and ethanol/water mixtures; cited from earlier work.

For the molecule `O=C(O)Cc1ccccc1Nc1c(Cl)cccc1Cl` [diclofenac free acid], in data set [1] (before and after processing to an edible film (with ethanol, without ethanol, without ethanol with homogenization), disintegrated in water), the “particle size distribution profile, starting material versus released from edible films” value is “essentially is no difference”. In addition, in data set [1] (non-micronized (mean particle size 16 micrometers) or micronized, solvents e.g. water, water/ethanol or ethanol), the aggregation in dispersion result is “no such aggregation does occur”. For the same molecule, in data set [2], the solubility entry is on record as “only poorly soluble”.
